The test system of the first test is tumor endothelial cells (LL/2 lung cancer tumor). In words: Lung LL2 ex vivo model of tumor angiogenesis. Format: cell-based, mouse. The conditions noted are these: Lung LL2 ex vivo; Conc. 20 μm; 48 hrs. How it is done: This example describes a procedure to prepare a primary tumor angiogenesis model for assessing the efficacy of anti-cancer candidate agents.
1. The day before the experiment, spray all necessary tools with 70% ethanol and sterilize them under UV light overnight, including blade, dissecting and micro-dissecting scissors and […]. Place 24-well dishes at 4° C. to pre-chill plates and thaw Matrigel 24 hours before tumor dissection.
2. Spray 70% ethanol on working bench. Prepare two sterile petri dishes with 10 mL sterile PBS. Steps 3 and 4 are for mouse tumor models. For fresh human tumor, directly go to step 5.
3. Euthanize the tumor-bearing mice. Spray 70% ethanol on the mouse and remove the tumor using sterilized dissecting tools (avoid the fur). Rinse the tumor in petri dish with sterile PBS to remove ethanol and fur. Transfer the tumor to a new petri dish with PBS for dissection. Place the dish on ice.
4. Using pre-chilled sterile pipet tips to seed regular Matrigel in 24 well plates on ice. Matrigel (30 μL) is dropped in the middle of each well without touching the edge of the well (avoid introducing bubbles if possible).
5. Cut the tumor in halves using the sterile blade. Identify and isolate healthy tumor tissue that is not necrotic and is within the tumor capsule. Cut the healthy tumor tissue into small pieces. For instance, a suitable size for the tumor tissue is 0.5 mm (H)×0.5 mm (L)×0.3 mm (D) with a total volume of 0.075 mm^3.
6. Gently transfer and embed each tumor piece in the Matrigel drop in the 24-well plate. Place the embedded piece in the bottom and middle of each Matrigel drop. Keep the plate on ice all the time.
7. After seeding the tumor pieces, plates are incubated in a 37° C. cell culture incubator without medium for 10 minutes in order for the Matrigel to solidify.
8. Endothelial Growth Medium (0.5 mL) is added to each well and incubated at 37° C. with 5% CO2. Wait until the new endothelial cells have grown out of the tumor or are larger than 3 mm in diameter until treatment. This usually takes 4 days for the LL2 Lewis lung cancer model and 7 days for the CT26 colon cancer model. For human tumor models, the growth time is typically 2-3 weeks, depending on the tumor type. Media is changed every 4 days during prolonged culture. Typically, when the tumor tissue grows to 2 mm in diameter, it is good for drug testing. A size of about 3 mm in diameter can make visualization easier.
9. When the assay is ready to be analyzed for cell death (e.g., 48 hours after drug addition), prepare the dye mixture by mixing 6 μL of green dye to stain live cells (5 mg/mL Fluorescein diacetate or FDA in DMSO) with 30 μL of red dye (2.5 mg/mL Propidium iodide or PI in PBS) to stain dead cells in an Eppendorf tube. The FDA dye needs to be stored frozen in a −20° C. freezer because it has a labile ester bond.
10. Add 1 μL of the dye mixture to each well of the 24-well dish. It is usually performed one 24-well dish at a time given the amount of time needed to take pictures (the green dye is not as stable in the cells in the long term).
11. Gently rock the dish a few times to mix the dye with the media in the wells and incubate the dish at 37° C. for 10 min (too long incubation can make the green signal too intense).
12. Wash each well with 0.5 mL of sterile PBS and then add 0.5 mL of phenol red free SFM to each well. Alternatively 0.5 mL of regular Endothelial Cell Growth Media can be added to each well if this well needs to be continuously maintained after the experiment.
13. Look through all wells on an inverted microscope using the 2× objective lens to observe morphological changes.
14. Taking pictures in the red and green channels would allow not only the recording of the result but also more accurate quantitation of the result. To take pictures for all the wells, first pick a well that has robust red and green signals. […]
As to “3-((4-(heptyloxy)phenyl)sulfonyl)-4-(4- (4-(2-mPEGoxyethyl)piperazin-1- yl)piperidin-1-yl)-6- (methylsulfinyl)quinoline [compound 280]”, the “48 hrs (morphology observations after 48 hours)” value was “*** (100% of endothelial cells vesicularize in cell shape)”.

As for “4-([1,4′:1′,4″-terpiperidin]-1″-yl)-6- (methyl(λ^1-oxidanyl)-λ^3-sulfanyl)-3-((4- (tetradecyloxy)phenyl)sulfonyl)quinoline [compound 347]”, the “48 hrs (morphology observations after 48 hours)” value is listed as “*** (100% of endothelial cells vesicularize in cell shape)”.

The same test, now with this note: Lung LL2 ex vivo; Conc. 20 μm; drug treatment two days.
In turn, “3-((4-(heptyloxy)phenyl)sulfonyl)-4-(4- (4-(2-mPEGoxyethyl)piperazin-1- yl)piperidin-1-yl)-6- (methylsulfinyl)quinoline [compound 280]” registered a Cell death of 100%.

Regarding “4-([1,4′:1′,4″-terpiperidin]-1″-yl)-6- (methyl(λ^1-oxidanyl)-λ^3-sulfanyl)-3-((4- (tetradecyloxy)phenyl)sulfonyl)quinoline [compound 347]”, the Cell death is recorded as 30%.

`COc1ccc(S(=O)(=O)c2cnc3ccc(OC(F)(F)F)cc3c2N2CCC(N3CCC(O)CC3)CC2)cc1` [compound 113, 1′-(3-((4-methoxyphenyl)sulfonyl)-6-(trifluoromethoxy)quinolin-4-yl)-[1,4′-bipiperidin]-4-ol]: the Cell death stood at 10%.

For `COc1ccc(S(=O)(=O)c2cnc3ccc(CC#N)cc3c2N2CCC(N3CCCCC3)CC2)cc1` [compound 115, 2-(4-([1,4′-bipiperidin]-1′-yl)-3-((4-methoxyphenyl)sulfonyl)quinolin-6-yl)acetonitrile], the Cell death was 10%.

As for `O=S(=O)(c1ccc(OC(F)(F)F)cc1)c1cnc2ccc(OC(F)(F)F)cc2c1N1CCC(N2CCCCC2)CC1` [compound 120, 4-([1,4′-bipiperidin]-1′-yl)-6-(trifluoromethoxy)-3-((4-(trifluoromethoxy)phenyl)sulfonyl)quinoline], the Cell death is on record as 5%.

In turn, `CCc1ccc(S(=O)(=O)c2cnc3ccc(OC(F)(F)F)cc3c2-n2cnnn2)cc1` [compound 125, 3-((4-ethylphenyl)sulfonyl)-4-(1H-tetrazol-1-yl)-6-(trifluoromethoxy)quinoline] gave a Cell death of 10%.

Staying with this test, now noted: Lung LL2 ex vivo; Conc. 40 μm; drug treatment two days.
With `CCc1ccc(S(=O)(=O)c2cnc3ccc(OC)cc3c2NN2CCN(C)CC2)cc1` [compound 83, 3-((4-ethylphenyl)sulfonyl)-6-methoxy-N-(4-methylpiperazin-1-yl)quinolin-4-amine], the Cell death worked out at 20%.

As for `CNC(=O)c1ccc2ncc(S(=O)(=O)c3ccc(OC)cc3)c(N3CCC(N4CCCCC4)CC3)c2c1` [compound 143, 4-([1,4′-bipiperidin]-1′-yl)-3-((4-methoxyphenyl)sulfonyl)-N-methylquinoline-6-carboxamide], the Cell death is 40%.

Still in this test, the particulars now being: Mus musculus, Endothelial cell, 48 h, read-out: Cell death.
`COc1ccc(S(=O)(=O)c2cnc3ccc(OC(F)(F)F)cc3c2NCCO)cc1OC` [compound 73, 2-((3-((3,4-dimethoxyphenyl)sulfonyl)-6-(trifluoromethoxy)quinolin-4-yl)amino)ethan-1-ol]: the cytotoxicity at 40 µM came to 10%.

As for `CCc1ccc(S(=O)(=O)c2cnc3ccc(OC(F)(F)F)cc3c2N2CCC(N(CC)CC)CC2)cc1` [compound 103, N,N-diethyl-1-(3-((4-ethylphenyl)sulfonyl)-6-(trifluoromethoxy)quinolin-4-yl)piperidin-4-amine], the cytotoxicity at 20 µM is 10%.

As to `CCc1ccc(S(=O)(=O)c2cnc3ccc(OC(F)(F)F)cc3c2NCCCCCO)cc1` [compound 104, 5-((3-((4-ethylphenyl)sulfonyl)-6-(trifluoromethoxy)quinolin-4-yl)amino)pentan-1-ol], the cytotoxicity at 20 µM is 20%.

As for `CCc1ccc(S(=O)(=O)c2cnc3ccc(OC(F)(F)F)cc3c2NN2CCCCC2)cc1` [compound 105, 3-((4-ethylphenyl)sulfonyl)-N-(piperidin-1-yl)-6-(trifluoromethoxy)quinolin-4-amine], the cytotoxicity at 20 µM was found to be 0%.

Consider `CCc1ccc(S(=O)(=O)c2cnc3ccc(OC(F)(F)F)cc3c2NCc2ccncc2)cc1` [compound 106, 3-((4-ethylphenyl)sulfonyl)-N-(pyridin-4-ylmethyl)-6-(trifluoromethoxy)quinolin-4-amine], for which the cytotoxicity at 20 µM was 5%.

Consider `CCc1ccc(S(=O)(=O)c2cnc3ccc(OC(F)(F)F)cc3c2Nc2ccncc2)cc1` [compound 107, 3-((4-ethylphenyl)sulfonyl)-N-(pyridin-4-yl)-6-(trifluoromethoxy)quinolin-4-amine], for which the cytotoxicity at 20 µM stood at 0%.

As for `CCc1ccc(S(=O)(=O)c2cnc3ccc(OC(F)(F)F)cc3c2-n2cccc2)cc1` [compound 108, 3-((4-ethylphenyl)sulfonyl)-4-(1H-pyrrol-1-yl)-6-(trifluoromethoxy)quinoline], the cytotoxicity at 20 µM turned out to be 0%.

Consider `CCc1ccc(S(=O)(=O)c2cnc3ccc(OC(F)(F)F)cc3c2-n2cccn2)cc1` [compound 109, 3-((4-ethylphenyl)sulfonyl)-4-(1H-pyrazol-1-yl)-6-(trifluoromethoxy)quinoline], for which the cytotoxicity at 20 µM turned out to be 0%.

In the case of `CCc1ccc(S(=O)(=O)c2cnc3ccc(OC(F)(F)F)cc3c2NCCCCO)cc1` [compound 111, 4-((3-((4-ethylphenyl)sulfonyl)-6-(trifluoromethoxy)quinolin-4-yl)amino)butan-1-ol], the cytotoxicity at 20 µM amounted to 30%.

As to `COc1ccc(S(=O)(=O)c2cnc3ccc([N+](=O)[O-])cc3c2N2CCC(N3CCCCC3)CC2)cc1` [compound 114, 4-([1,4′-bipiperidin]-1′-yl)-3-((4-methoxyphenyl)sulfonyl)-6-nitroquinoline], the cytotoxicity at 20 µM came out at 5%.

As for `COc1ccc(S(=O)(=O)c2cnc3cc(OC)c(OC)cc3c2N2CCC(N3CCCCC3)CC2)cc1OC` [compound 122, 4-([1,4′-bipiperidin]-1′-yl)-3-((3,4-dimethoxyphenyl)sulfonyl)-6,7-dimethoxyquinoline], the cytotoxicity at 20 µM was 10%.

Turning to `CCc1ccc(S(=O)(=O)c2cnc3ccc(OC(F)(F)F)cc3c2NN2CCOCC2)cc1` [compound 126, N-(3-((4-ethylphenyl)sulfonyl)-6-(trifluoromethoxy)quinolin-4-yl)morpholin-4-amine], the cytotoxicity at 20 µM was found to be 10%.

Consider `CCOC(=O)c1ccc2ncc(S(=O)(=O)c3ccc(CC)cc3)c(-n3nnc4ccccc43)c2c1` [compound 133, ethyl 4-(1H-benzo[d][1,2,3]triazol-1-yl)-3-((4-ethylphenyl)sulfonyl)quinoline-6-carboxylate], for which the cytotoxicity at 20 µM is 10%.

For `CCOC(=O)c1ccc2ncc(S(=O)(=O)c3ccc(OC)cc3)c(-n3ccnc3)c2c1` [compound 141, ethyl 4-(1H-imidazol-1-yl)-3-((4-methoxyphenyl)sulfonyl)quinoline-6-carboxylate], the cytotoxicity at 20 µM worked out at 90%.

Take `CCCCOc1ccc(S(=O)(=O)c2cnc3ccc(SC)cc3c2N2CCC(N3CCC(O)CC3)CC2)cc1` [compound 162, 1′-(3-((4-butoxyphenyl)sulfonyl)-6-(methylthio)quinolin-4-yl)-[1,4′-bipiperidin]-4-ol]: the cytotoxicity at 40 µM was 70%.

For the molecule `CCCCOc1ccc(S(=O)(=O)c2cnc3ccc([S+](C)[O-])cc3c2N2CCC(N3CCCCC3)CC2)cc1` (stereo not shown) [compound 167, 4-([1,4′-bipiperidin]-1′-yl)-3-((4-butoxyphenyl)sulfonyl)-6-(methylsulfinyl)quinoline], the cytotoxicity at 20 µM was 40%.

Regarding `CCCCOc1ccc(S(=O)(=O)c2cnc3ccc([S+](C)[O-])cc3c2N2CCC(N3CCC(O)CC3)CC2)cc1` (stereo not shown) [compound 168, 1′-(3-((4-butoxyphenyl)sulfonyl)-6-(methylsulfinyl)quinolin-4-yl)-[1,4′-bipiperidin]-4-ol], the cytotoxicity at 20 µM came out at 10%.

As to `CCCCOc1ccc(S(=O)(=O)c2cnc3ccc(S(C)(=O)=O)cc3c2N2CCC(N3CCCCC3)CC2)cc1` [compound 169, 4-([1,4′-bipiperidin]-1′-yl)-3-((4-butoxyphenyl)sulfonyl)-6-(methylsulfonyl)quinoline], the cytotoxicity at 20 µM is 40%.

The values above are taken from patent US11884647B2, “Compounds and methods for targeting pathogenic blood vessels” (THE REGENTS OF THE UNIVERSITY OF CALIFORNIA, priority 2019, dated 2024).
